Data as given in patent US6849598B1, “Therapeutic compositions comprising bactericidal/permeability-increasing (BPI) protein products” (XOMA, priority 1995, dated 2005).
≈ marks a conversion by molar mass, not a printed value. Read-outs that look alike come from different tables or passages of the source.

Columns and labels:
[1] = system: P. aeruginosa (ATCC 19660); assay: Antibiotic susceptibility (MIC, Microscan® MIC Plus Type 2 panel) with rBPI21/P123 and EDTA; type: cell-based; design: key to susceptibility interpretation of MIC (superscript): R: resistant; I: intermediate; S: susceptible; settings: for effect of EDTA added to the rBPI21/P123 formulation on susceptibility of the strain to the antibiotic: summary of Table 17
P. aeruginosa = assay: Antibiotic susceptibility (MIC, Sensititre Trays) with rBPI21 poloxamer formulations; type: cell-based; settings: for MIC: Pseudomonas aeruginosa, read-out: Minimum Inhibitory Concentration
Method: The effect of therapeutic compositions of rBPI21 formulated with poloxamer, with or without EDTA, was evaluated on the antibiotic susceptibility of the multiple drug resistant A. baumannii, S. pneumoniae, E. faecium and P. aeruginosa organisms of Example 5. Therapeutic compositions were prepared containing 2 mg/mL rBPI21, (5 mM sodium citrate, 150 mM NaCl) with a 0.2% (w/v) concentration of PLURONIC F68, P103, P104, P105 or P123. The effect on the antibiotic susceptibility of the organisms was determined in Mueller-Hinton Broth plus Cations (CSMHB, Remel), or 40% pooled human serum in CSMHB (Sigma, St. Louis, Mo.), as follows.
Isolated colonies of the organism from overnight cultures were suspended in Microscan® Inoculum Water to a concentration equivalent to a 0.5 McFarland Standard (approximately 1×10^8 CFU/ml), determined using a Microscan® turbidimeter. Aliquots were transferred to either CSMHB or 40% pooled human serum in CSMHB. Each tube contained either a final concentration of 16 μg/mL rBPI21 or an equivalent volume of control buffer. Minimal inhibitory concentrations (MIC) for each antibiotic tested, i.e. the lowest concentration of antibiotic which inhibits visible growth, were determined using gram-negative (MB and MC) and gram-positive (MA) Sensititre Trays (Radiometer America, Westlake, Ohio), which allow for the rapid and simultaneous survey of a broad spectrum of standard antibiotics. Any other antimicrobial panel systems known in the art, such as the Microscan® (Dade Microscan, Sacramento, Calif.), Pasco (DIFCO, Detroit, Mich.) and Alamar (Alamar, Sacramento, Calif.) systems, may alternatively be used to assay for antibiotic susceptibility.
Tables 12-15 below display a summary of the results of the antibiotic screening panels, reported for each strain tested as the MIC of the tested antibiotics in the presence of the indicated rBPI21 therapeutic composition. The antibiotic susceptibility standards (interpretation of an MIC as clinically resistant (R), intermediate (I) or susceptible (S) according to NCCLS standards) applicable to the organism tested appear in superscript next to the MIC.

[2] = rBPI21/P123 at 64 μg/ml rBPI21, With 0% EDTA
[3] = rBPI21/P123 at 64 μg/ml rBPI21, With 0.01% EDTA
[4] = rBPI21/P123 at 64 μg/ml rBPI21, With 0.05% EDTA
[5] = rBPI21/P123 at 64 μg/ml rBPI21, With 0.1% EDTA
[6] = CSMHB, 16 μg/mL rBPI21 with F68
[7] = CSMHB, 16 μg/mL rBPI21 with P103
[8] = CSMHB, 16 μg/mL rBPI21 with P104
[9] = CSMHB, 16 μg/mL rBPI21 with P105
[10] = CSMHB, 16 μg/mL rBPI21 with P123
[11] = Serum, 16 μg/mL rBPI21 with F68
[12] = Serum, 16 μg/mL rBPI21 with P103
[13] = Serum, 16 μg/mL rBPI21 with P104
[14] = Serum, 16 μg/mL rBPI21 with P105
[15] = Serum, 16 μg/mL rBPI21 with P123

Structure (SMILES)	Minimum Inhibitory Concentration of Antibiotic ([1]; Control (No BPI21))	susceptibility interpretation of MIC (superscript) ([1]; Control (No BPI21))	Minimum Inhibitory Concentration of Antibiotic [1, 2]	susceptibility interpretation of MIC (superscript) [1, 2]	Minimum Inhibitory Concentration of Antibiotic [1, 3]	susceptibility interpretation of MIC (superscript) [1, 3]	Minimum Inhibitory Concentration of Antibiotic [1, 4]	susceptibility interpretation of MIC (superscript) [1, 4]	Minimum Inhibitory Concentration of Antibiotic [1, 5]	susceptibility interpretation of MIC (superscript) [1, 5]	effect of EDTA added to the rBPI21/P123 formulation on susceptibility of the strain to the antibiotic [1]	susceptibility interpretation of MIC (superscript) (P. aeruginosa; [6])	susceptibility interpretation of MIC (superscript) (P. aeruginosa; [7])	susceptibility interpretation of MIC (superscript) (P. aeruginosa; [8])	susceptibility interpretation of MIC (superscript) (P. aeruginosa; [9])	susceptibility interpretation of MIC (superscript) (P. aeruginosa; [10])	susceptibility interpretation of MIC (superscript) (P. aeruginosa; CSMHB, Control (no BPI))	MIC (P. aeruginosa; [6])	MIC (P. aeruginosa; [7])	MIC (P. aeruginosa; [8])	also measured
CO/N=C(\C(=O)N[C@@H]1C(=O)N2C(C(=O)O)=CCS[C@H]12)c1csc(N)n1 [Ceftizoxime]	32 µg/mL	I	16 µg/mL	I	< 2 µg/mL	S	8 µg/mL	S	< 2 µg/mL	S	increasing the susceptibility	I	I	R	I	R	R	32 µg/mL (≈ 83.5 µM)	16 µg/mL (≈ 41.7 µM)	128 µg/mL (≈ 334 µM)	MIC (P. aeruginosa; [9]): 32 µg/mL (≈ 83.5 µM); MIC (P. aeruginosa; [10]): 128 µg/mL (≈ 334 µM); MIC (P. aeruginosa; CSMHB, Control (no BPI)): > 128 µg/mL; MIC (P. aeruginosa; [11]): > 128 µg/mL; MIC (P. aeruginosa; [12]): 16 µg/mL (≈ 41.7 µM); MIC (P. aeruginosa; [13]): 128 µg/mL (≈ 334 µM); MIC (P. aeruginosa; [14]): 16 µg/mL (≈ 41.7 µM); MIC (P. aeruginosa; [15]): 16 µg/mL (≈ 41.7 µM); MIC (P. aeruginosa; Serum, Control (no BPI)): 128 µg/mL (≈ 334 µM); susceptibility interpretation of MIC (superscript) (P. aeruginosa; [11]): R; susceptibility interpretation of MIC (superscript) (P. aeruginosa; [12]): I; susceptibility interpretation of MIC (superscript) (P. aeruginosa; [13]): R; susceptibility interpretation of MIC (superscript) (P. aeruginosa; [14]): I; susceptibility interpretation of MIC (superscript) (P. aeruginosa; [15]): I; susceptibility interpretation of MIC (superscript) (P. aeruginosa; Serum, Control (no BPI)): R
O=C(N[C@H](CO)[C@H](O)c1ccc([N+](=O)[O-])cc1)C(Cl)Cl [Chloramphenicol]	> 16 µg/mL	R	8 µg/mL	S	16 µg/mL	I	< 2 µg/mL	S	< 2 µg/mL	S	reversing resistance	R	I	R	I	I	R	> 32 µg/mL	16 µg/mL (≈ 49.5 µM)	> 32 µg/mL	MIC (P. aeruginosa; [9]): 16 µg/mL (≈ 49.5 µM); MIC (P. aeruginosa; [10]): 16 µg/mL (≈ 49.5 µM); MIC (P. aeruginosa; CSMHB, Control (no BPI)): > 32 µg/mL; MIC (P. aeruginosa; [11]): > 32 µg/mL; MIC (P. aeruginosa; [12]): 16 µg/mL (≈ 49.5 µM); MIC (P. aeruginosa; [13]): 16 µg/mL (≈ 49.5 µM); MIC (P. aeruginosa; [14]): 16 µg/mL (≈ 49.5 µM); MIC (P. aeruginosa; [15]): 16 µg/mL (≈ 49.5 µM); MIC (P. aeruginosa; Serum, Control (no BPI)): > 32 µg/mL; susceptibility interpretation of MIC (superscript) (P. aeruginosa; [11]): R; susceptibility interpretation of MIC (superscript) (P. aeruginosa; [12]): I; susceptibility interpretation of MIC (superscript) (P. aeruginosa; [13]): I; susceptibility interpretation of MIC (superscript) (P. aeruginosa; [14]): I; susceptibility interpretation of MIC (superscript) (P. aeruginosa; [15]): I; susceptibility interpretation of MIC (superscript) (P. aeruginosa; Serum, Control (no BPI)): R
CO/N=C(\C(=O)N[C@@H]1C(=O)N2C(C(=O)O)=C(CSc3nc(=O)c(=O)[nH]n3C)CS[C@H]12)c1csc(N)n1 [Ceftriaxone]	16 µg/mL	I	4 µg/mL	S	8 µg/mL	S	< 2 µg/mL	S	< 2 µg/mL	S	increasing the susceptibility	I	S	R	I	R	R	32 µg/mL (≈ 57.7 µM)	8 µg/mL (≈ 14.4 µM)	128 µg/mL (≈ 231 µM)	MIC (P. aeruginosa; [9]): 32 µg/mL (≈ 57.7 µM); MIC (P. aeruginosa; [10]): 128 µg/mL (≈ 231 µM); MIC (P. aeruginosa; CSMHB, Control (no BPI)): > 128 µg/mL; MIC (P. aeruginosa; [11]): > 128 µg/mL; MIC (P. aeruginosa; [12]): 16 µg/mL (≈ 28.9 µM); MIC (P. aeruginosa; [13]): 128 µg/mL (≈ 231 µM); MIC (P. aeruginosa; [14]): 16 µg/mL (≈ 28.9 µM); MIC (P. aeruginosa; [15]): 32 µg/mL (≈ 57.7 µM); MIC (P. aeruginosa; Serum, Control (no BPI)): 128 µg/mL (≈ 231 µM); susceptibility interpretation of MIC (superscript) (P. aeruginosa; [11]): R; susceptibility interpretation of MIC (superscript) (P. aeruginosa; [12]): I; susceptibility interpretation of MIC (superscript) (P. aeruginosa; [13]): R; susceptibility interpretation of MIC (superscript) (P. aeruginosa; [14]): I; susceptibility interpretation of MIC (superscript) (P. aeruginosa; [15]): I; susceptibility interpretation of MIC (superscript) (P. aeruginosa; Serum, Control (no BPI)): R
CC(C)(O/N=C(\C(=O)N[C@@H]1C(=O)N2C(C(=O)[O-])=C(C[n+]3ccccc3)CS[C@H]12)c1csc(N)n1)C(=O)O [Ceftazidime]	2 µg/mL	S	< 1 µg/mL	S	< 1 µg/mL	S	< 1 µg/mL	S	< 1 µg/mL	S											
